Measured values as given in patent publication US10640495B2, “Heterocycle derivatives having TrkA inhibitory activity” (Shionogi & Co., Ltd., priority 2015, dated 2020).
pIC50: −log10 of the molar value.

Biological target: human TrkA (Homo sapiens (Human), UniProt P04629)
Experiment: Human TrkA inhibition assay (Test Example 2)
Format: biochemical
Conditions: Table 152, human TrkA inhibition; read-out: IC50_nM
Outline: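 Recombinant TrkA (1 nmol/L) was preincubated 15 min at room temperature with compound in HEPES/MgCl2/DTT buffer, then reacted with FL-peptide 27 (1.5 μmol/L) and ATP (500 μmol/L) for 120 min at 37 °C. After EDTA stop, substrate phosphorylation was read by microfluidic mobility shift. IC50 came from logistic regression over 3-fold dilution series.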

Sequence of human TrkA (P04629 440-796): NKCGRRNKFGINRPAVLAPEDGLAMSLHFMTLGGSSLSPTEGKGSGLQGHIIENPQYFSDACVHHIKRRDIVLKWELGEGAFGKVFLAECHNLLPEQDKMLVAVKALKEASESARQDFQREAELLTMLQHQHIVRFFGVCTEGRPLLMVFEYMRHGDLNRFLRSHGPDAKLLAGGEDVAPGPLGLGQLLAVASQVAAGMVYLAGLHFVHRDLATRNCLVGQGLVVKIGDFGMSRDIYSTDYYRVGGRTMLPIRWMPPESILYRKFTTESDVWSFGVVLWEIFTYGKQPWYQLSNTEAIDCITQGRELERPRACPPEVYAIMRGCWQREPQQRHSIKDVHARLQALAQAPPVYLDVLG

| pIC50 | Compound |
| --- | --- |
| > 7.00 | COCCC1C[C@@H](NC(=O)Nc2c(C)c(-c3ccc(C(=O)OC(C)(C)C)cc3)nn2-c2ccccc2)[C@H](c2ccccc2)O1 (stereo partly shown) [Compound I-13] |

Same assay, conditions: Table 153, human TrkA inhibition; read-out: IC50

| Compound | pIC50 |
| --- | --- |
| COCCN1C[C@@H](NC(=O)Nc2c(C)c(C3=CCN(C(=O)OC(C)(C)C)CC3)nn2-c2ccccc2)[C@H](c2cnc(F)c(F)c2)O1 (racemic) [Compound I-46] | > 7.00 |
| COCC[C@@H]1C[C@@H](NC(=O)Nc2c(C)c(C3=CCN(C(=O)CO)CC3)nn2-c2ccccc2)[C@H](c2ccc(F)c(F)c2)O1 [Compound I-59] | > 7.00 |
| COCCN1C[C@@H](NC(=O)Nc2c(C)c(-c3cccc(N=S(C)(C)=O)c3)nn2-c2ccccc2)[C@H](c2ccc(F)c(F)c2)O1 (racemic) [Compound I-89] | > 7.00 |
| COCCN1C[C@@H](NC(=O)Nc2c(C)c(-c3cnc4c(cnn4C)c3)nn2-c2ccc(F)cc2)[C@H](c2ccc(F)c(F)c2)O1 (racemic) [Compound I-174] | > 7.00 |
| COCCN1C[C@@H](NC(=O)Nc2c(C)c(-c3cncc(N=S(C)(C)=O)c3)nn2-c2ccccc2)[C@H](c2ccc(F)c(F)c2)O1 (racemic) [Compound I-85] | > 7.00 |
| COCCN1C[C@@H](NC(=O)Nc2c(C)c(C3=CCN(C(=O)CO)CC3)nn2-c2ccccc2)[C@H](c2ccc(F)c(F)c2)O1 (racemic) [Compound I-53] | > 7.00 |
| COCCN1C[C@@H](NC(=O)Nc2c(C)c(-c3cnn(C)c3)nn2C2CC2)[C@H](c2ccc(F)c(F)c2)O1 (racemic) [Compound I-88] | < 6.00 |
| COCCN1C[C@@H](NC(=O)Nc2c(C)c(C3=CCN(c4ncc(Cl)cn4)CC3)nn2-c2ccccc2)[C@H](c2ccc(F)c(F)c2)O1 (racemic) [Compound I-153] | > 7.00 |
| COCCN1C[C@@H](NC(=O)Nc2c(C)c(-c3cnc(OC)c(C(=O)NC4CCS(=O)(=O)CC4)c3)nn2-c2ccccc2)[C@H](c2cnc(F)c(F)c2)O1 (racemic) [Compound I-103] | > 7.00 |

Results, then the molecule that gave them:

| pIC50 | Compound |
| --- | --- |
| > 7.00 | COCCN1C[C@@H](NC(=O)Nc2c(C)c(-c3ccn4c(C)nnc4c3)nn2-c2ccccc2)[C@H](c2ccnc(F)c2)O1 (racemic) [Compound I-155] |
| > 7.00 | COCCN1C[C@@H](NC(=O)Nc2c(C)c(-c3cnn(C)c3)nn2-c2ccccc2)[C@H](c2cnc(Cl)s2)O1 (racemic) [Compound I-137] |
| > 7.00 | COCCN1C[C@@H](NC(=O)Nc2c(C)c(-c3cnn(C)c3)nn2-c2ccccc2)[C@H](c2ccnc(F)c2)O1 (racemic) [Compound I-91] |
| > 7.00 | CNc1ncc(-c2nn(-c3ccccc3)c(NC(=O)N[C@@H]3CN(CCOC)O[C@H]3c3ccnc(F)c3)c2C)cn1 (racemic) [Compound I-93] |

Same assay, conditions: Table 154, human TrkA inhibition; read-out: IC50

| pIC50 | Compound |
| --- | --- |
| > 7.00 | COCCN1C[C@@H](NC(=O)Nc2c(C)c(-c3cnc4c(c3)nc(C#N)n4C)nn2-c2ccccc2)[C@H](c2ccnc(F)c2)O1 (racemic) [Compound I-220] |
| > 7.00 | COCCN1C[C@@H](NC(=O)Nc2c(C)c(-c3cnc4c(c3)nc(C(N)=O)n4C)nn2-c2ccccc2)[C@H](c2ccc(F)c(F)c2)O1 [Compound I-221] |
| > 7.00 | COCCN1C[C@@H](NC(=O)Nc2c(C)c(-c3cnc(OC)c(C#N)c3)nn2-c2ccccc2)[C@H](c2ccnc(F)c2)O1 (racemic) [Compound I-307] |

Same assay, conditions: Table 155, human TrkA inhibition; read-out: IC50

| pIC50 | Compound |
| --- | --- |
| > 7.00 | COCCN1C[C@@H](NC(=O)Nc2c(C)c(-c3cnc4c(c3)c(N3CCCC3)nn4C)nn2-c2ccccc2)[C@H](c2ccnc(F)c2)O1 (racemic) [Compound I-491] |
| > 7.00 | COCCN1C[C@@H](NC(=O)Nc2c(C)c(-c3cnc4c(c3)N(C(C)=O)CCO4)nn2-c2ccccc2)[C@H](c2ccnc(F)c2)O1 (racemic) [Compound I-341] |
| > 7.00 | COCCN1C[C@@H](NC(=O)Nc2c(C)c(-c3cnc(C(=O)NC4CC4)c(OC)c3)nn2-c2ccccc2)[C@H](c2ccnc(F)c2)O1 (racemic) [Compound I-339] |
| > 7.00 | COCCN1C[C@@H](NC(=O)Nc2c(C)c(-c3cnc4c(c3)CN(C(C)=O)CC4)nn2-c2ccccc2)[C@H](c2ccnc(F)c2)O1 (racemic) [Compound I-439] |
| > 7.00 | COCCN1C[C@@H](NC(=O)Nc2c(C)c(-c3cnc(N4CC5(COC5)C4)nc3)nn2-c2ccccc2)[C@H](c2cnc(F)c(F)c2)O1 [Compound I-430] |
| > 7.00 | COCCN1C[C@@H](NC(=O)Nc2c(C)c(-c3cnc(OC)c(OC)c3)nn2-c2ccccc2)[C@H](c2ccnc(F)c2)O1 (racemic) [Compound I-366] |
| > 7.00 | COCCN1C[C@@H](NC(=O)Nc2c(C)c(-c3cc(C)c4nccn4c3)nn2-c2ccccc2)[C@H](c2ccnc(F)c2)O1 (racemic) [Compound I-348] |
| > 7.00 | COCCN1C[C@@H](NC(=O)Nc2c(C)c(-c3cc(C(=O)NC(C)(C)C(F)(F)F)c(=O)n(C)c3)nn2-c2ccccc2)[C@H](c2ccnc(F)c2)O1 (racemic) [Compound I-390] |
| > 7.00 | COCCN1C[C@@H](NC(=O)Nc2c(C)c(-c3cnc(C4CCOCC4)nc3)nn2-c2ccccc2)[C@H](c2ccnc(F)c2)O1 (racemic) [Compound I-513] |
| 6.00 to 7.00 | COCCN1C[C@@H](NC(=O)Nc2c(C)c(Oc3ccnc(C(F)(F)F)c3)nn2-c2ccccc2)[C@H](c2ccnc(F)c2)O1 (racemic) [Compound I-441] |
| > 7.00 | COCCN1C[C@@H](NC(=O)Nc2c(C)c(-n3cnc(C)c3)nn2-c2ccccc2)[C@H](c2ccnc(F)c2)O1 (racemic) [Compound I-346] |
| > 7.00 | COCCN1C[C@@H](NC(=O)Nc2c(C)c(-c3cc(C(=O)NC(C)(C)C)c(=O)n(C)c3)nn2-c2ccccc2)[C@H](c2ccnc(F)c2)O1 (racemic) [Compound I-389] |
| > 7.00 | COCCN1C[C@@H](NC(=O)Nc2c(C)c(-c3cnc(N4CCN(C)CC4)nc3)nn2-c2ccccc2)[C@H](c2cc(F)nc(F)c2)O1 (racemic) [Compound I-380] |

Same assay, conditions: Table 156, human TrkA inhibition; read-out: IC50

| Compound | pIC50 |
| --- | --- |
| COCCN1C[C@@H](NC(=O)Nc2c(C)c(C)nn2-c2ccccc2)[C@H](c2cnc(F)c(F)c2)O1 [Compound I-520] | > 7.00 |
| CCN1C[C@@H](NC(=O)Nc2c(C)c(-c3ccn(C)c(=O)c3)nn2-c2ccccc2)[C@H](c2ccc(F)c(F)c2)O1 (racemic) [Compound I-543] | > 7.00 |
| COCCN1C[C@@H](NC(=O)Nc2c(C)c(C)nn2-c2ccccc2)[C@H](c2ccc(F)c(F)c2)O1 [Compound I-518] | > 7.00 |
| CNC(=O)c1cc(-c2nn(-c3ccccc3)c(NC(=O)N[C@@H]3CN(CC(F)(F)F)O[C@H]3c3ccc(F)c(F)c3)c2C)cnc1OC (racemic) [Compound I-571] | > 7.00 |
| CCN1C[C@@H](NC(=O)Nc2c(C)c(OCC3CCNCC3)nn2-c2ccccc2)[C@H](c2ccc(F)c(F)c2)O1 (racemic) [Compound I-559] | > 7.00 |
| COCCN1C[C@@H](NC(=O)Nc2c(C)c(OCCN(C)C)nn2-c2ccccc2)[C@H](c2ccc(F)c(F)c2)O1 [Compound I-572] | > 7.00 |

The remaining lines, values ahead:

| pIC50 | Compound |
| --- | --- |
| > 7.00 | COc1ncc(-c2nn(-c3ccccc3)c(NC(=O)N[C@@H]3CN(CCF)O[C@H]3c3ccc(F)c(F)c3)c2C)cn1 (racemic) [Compound I-525] |
| > 7.00 | COCCN1C[C@@H](NC(=O)Nc2c(C)c(-c3ccc(C)nc3)nn2-c2ccccc2)[C@H](c2ccc(F)c(F)c2)O1 [Compound I-556] |
| > 7.00 | COCCN1C[C@@H](NC(=O)Nc2c(C)c(-c3ccc(N4CC(OC)C4)nc3)nn2-c2ccccc2)[C@H](c2ccc(F)c(F)c2)O1 [Compound I-558] |

Same assay, conditions: Table 157, human TrkA inhibition; read-out: IC50

| Compound | pIC50 |
| --- | --- |
| CCN1C[C@@H](NC(=O)Nc2c(C)c(OCCCN3CCCC3)nn2-c2ccccc2)[C@H](c2ccc(F)c(F)c2)O1 (racemic) [Compound I-661] | > 7.00 |
| CCN1C[C@@H](NC(=O)Nc2c(C)c(-c3ccc4nc(C(N)=O)cn4c3)nn2-c2ccccc2)[C@H](c2ccc(F)c(F)c2)O1 (racemic) [Compound I-611] | > 7.00 |
| CNC(=O)c1cc(-c2nn(-c3ccccc3)c(NC(=O)N[C@@H]3CN(CCC(F)(F)F)O[C@H]3c3ccc(F)c(F)c3)c2C)cnc1OC (racemic) [Compound I-623] | 6.00 to 7.00 |

More lines, now with the values ahead:

| pIC50 | Compound |
| --- | --- |
| > 7.00 | COCCN1C[C@@H](NC(=O)Nc2c(C)c(-c3cnc(OC)c(CO)c3)nn2-c2ccccc2)[C@H](c2ccc(F)c(F)c2)O1 [Compound I-637] |
| > 7.00 | COCCN1C[C@@H](NC(=O)Nc2c(C)c(-c3ccnc(CO)c3)nn2-c2ccccc2)[C@H](c2ccc(F)c(F)c2)O1 [Compound I-617] |
| > 7.00 | COCCN1C[C@@H](NC(=O)Nc2c(C)c(-c3cnc(N4CC(N5CCOCC5)C4)nc3)nn2-c2ccccc2)[C@H](c2ccnc(F)c2)O1 (racemic) [Compound I-583] |

Same assay, conditions: human TrkA 1 nmol/L, ATP 500 μmol/L, 120 min at 37° C.; read-out: IC50 values (TrkA phosphorylation inhibition)

| Compound | pIC50 |
| --- | --- |
| CNC(=O)c1cc(-c2nn(-c3ccccc3)c(NC(=O)N[C@@H]3CN(CCOC)O[C@H]3c3cnc(F)c(F)c3)c2C)cnc1OC (racemic) [Compound I-73] | 8.92 |
| COCCN1C[C@@H](NC(=O)Nc2c(C)c(-c3cnn(C)c3)nn2-c2ccccc2)[C@H](c2ccc(F)c(F)c2)N1 (racemic) [Compound I-10] | 6.77 |

Now from value to molecule:

| pIC50 | Compound |
| --- | --- |
| 8.51 | COCCN1C[C@@H](NC(=O)Nc2c(C)c(-c3cnc(OCC4CC4)nc3)nn2-c2ccccc2)[C@H](c2ccnc(F)c2)O1 (racemic) [Compound I-431] |
| 8.68 | COCCN1C[C@@H](NC(=O)Nc2c(C)c(-c3cnc4[nH]ncc4c3)nn2-c2ccccc2)[C@H](c2ccnc(F)c2)O1 (racemic) [Compound I-299] |
| 8.82 | COCCN1C[C@@H](NC(=O)Nc2c(C)c(-c3cnc4c(c3)NCC(=O)N4)nn2-c2ccccc2)[C@H](c2ccnc(F)c2)O1 (racemic) [Compound I-356] |
| 9.03 | COCCN1C[C@@H](NC(=O)Nc2c(C)c(-c3cnc(N4CC(OC)C4)nc3)nn2-c2ccccc2)[C@H](c2ccnc(F)c2)O1 [Compound I-555] |
| 8.70 | COCCN1C[C@@H](NC(=O)Nc2c(C)c(-c3cnc4c(c3)OCC(=O)N4)nn2-c2ccccc2)[C@H](c2ccnc(F)c2)O1 (racemic) [Compound I-279] |
